From patent publication US20120010290A1, “Methods of Treating an Overweight or Obese Subject” (priority 2008, published 2012)

Test system: diet-induced obese C57BL/6NTac mice
Test: Weight loss study in diet-induced obese mice
Format: in vivo
Details: oral 1.0 mg/kg in 10% gelucire in deionised water, once a day for 7 days; C57BL/6NTac mice on 60% fat diet; after 7 days
Method: A weight loss study was conducted in obese mice. The mice in this study were not genetically obese, but prior to and during the study, obesity was induced by a high-fat diet. Twelve week-old C57BL/6NTac mice, maintained on a 60% fat diet prior to and during the study, were separated into two groups, with eight animals per group. Average body weight of the mice was approximately 47 g at the start of the study.
One group was orally administered 1.0 mg/kg of compound H in 10% gelucire in deionised water, and one group was administered 10% gelucire in deionised water (vehicle). Compound H is as follows:
Mice received administrations once a day for 7 days. After 7 days, the average weight loss of mice administered compound H was 13.2%.

CCN(CC)C/C=C\c1ccccc1S(=O)(=O)Nc1ccc2c(c1C(=O)O)CCCC2 [compound H]
average weight loss: 13.2%
